Test results as given in patent US8183252B2, “Heterocyclic aspartyl protease inhibitors” (Schering Corporation, priority 2007, dated 2012).

Target: T1, human BACE1 (sproBACE1) (Homo sapiens, UniProt P56817)
T1 construct: sBACE1, corresponding to amino acids 1-454; made in house; host or cells: Sf9 insect cells (baculovirus), secreted into the medium
Experiment: BACE-1 Peptide Hydrolysis Assay (HTRF)
Type: biochemical
Conditions: not given
Summary of the method: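 Secreted sBACE1-myc/His from baculovirus-infected sf9 cells, purified on Q-sepharose then Ni-NTA. Substrate-initiated reactions ran 3 hr at 30° C., then were stopped with KF buffer (pH 8.0) containing SA-XL665 for HTRF read-out. EC50 was fitted by sigmoidal dose-response to percent change in ratio.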

T1 sequence (P56817 22-454): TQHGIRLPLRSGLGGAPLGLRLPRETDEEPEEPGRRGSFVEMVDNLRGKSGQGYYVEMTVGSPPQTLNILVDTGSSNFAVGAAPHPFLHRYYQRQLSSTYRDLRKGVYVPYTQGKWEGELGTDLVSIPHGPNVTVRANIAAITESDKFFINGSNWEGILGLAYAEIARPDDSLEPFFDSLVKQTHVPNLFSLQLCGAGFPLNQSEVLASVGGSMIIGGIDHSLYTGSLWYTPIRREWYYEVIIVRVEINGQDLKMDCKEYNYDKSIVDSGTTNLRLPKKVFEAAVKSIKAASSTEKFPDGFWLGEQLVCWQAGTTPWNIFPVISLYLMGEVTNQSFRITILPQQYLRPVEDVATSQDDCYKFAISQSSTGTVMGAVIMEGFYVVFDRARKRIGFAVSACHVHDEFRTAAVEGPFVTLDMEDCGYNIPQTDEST

SMILES | Ki [µM]
CC(=O)N1CCC(CN2C(=N)NC(C)(c3cccc(-c4cccc(O)c4)c3)C2=O)CC1 (stereo not drawn) | < 5
CS(=O)(=O)N1CCCC(CCN2C(=N)NC(c3ccccc3)(c3ccccc3)C2=O)C1 (racemic) | < 5
CC(=O)N1CCC(CN2C(=N)NC(C)(c3cccc(-c4cnn(C)c4)c3)C2=O)CC1 (stereo not drawn) | < 5

Same assay, conditions: read-out: BACE-1 Ki

Ki [µM] | SMILES
< 5 | CC(C)N1C(=N)NC(c2cccc(-c3cccc(Cl)c3)c2)(C2CC2)C1=O (stereo not drawn) [4-imidazolidinone, 5-(3′-chloro[1,1′-biphenyl]-3-yl)-5-cyclopropyl-2-imino-3-(1-methylethyl)-]
< 5 | CN1C(=N)N[C@](C)(c2cc(-c3cccnc3)cs2)CC1=O
< 5 | CN1C(=N)NC(c2cccc(-n3ccnc3)c2)(C2CC2)C1=O (stereo not drawn) [5-CYCLOPROPYL-5-[3-(1H-IMIDAZOL-1-YL)PHENYL]-2-IMINO-3-METHYL-4-IMIDAZOLIDINONE]
< 5 | CN1C(=N)N[C@](C)(c2cnc(-c3cccc(C#N)c3)s2)CC1=O
< 5 | N=C1NC(c2ccccc2)(c2ccccc2)C(=O)N1CC1CCN(C(=O)Nc2cccc(Cl)c2)CC1
< 5 | COc1cncc(-c2csc(C3(C4CC4)NC(=N)N(C)C3=O)c2)c1 (stereo not drawn)
< 5 | CCCN(CCC)C(=O)c1cccc(CN2C(=N)NC(C)(c3cccc(Br)c3)C2=O)c1 (racemic)
< 5 | CN1C(=N)N[C@](C)(c2ccc3c(cnn3CC3CCCC3)c2)CC1=O
< 5 | CN1C(=N)N[C@](C)(c2csc3c(-c4ccccc4)cccc23)CC1=O
< 5 | CN1C(=N)NC(c2cc(-c3cccc(CO)c3)cs2)(C2CC2)C1=O (stereo not drawn)
< 5 | N=C1NC(c2cccc(-c3cccc(Cl)c3)c2)(C2CC2)C(=O)N1C1CCC1 (stereo not drawn) [4-imidazolidinone, 5-(3′-chloro[1,1′-biphenyl]-3-yl)-3-cyclobutyl-5-cyclopropyl-2-imino-]
< 5 | CN1C(=N)N[C@@](CCC2CCCCC2)(C[C@H]2CCC[C@@H](Nc3cnc4cc(Cl)ccc4n3)C2)C1=O
< 5 | CN1C(=N)N[C@@](CCC2CCCCC2)(C[C@H]2CCC[C@@H](Nc3ccc4cccc(Cl)c4n3)C2)C1=O
< 5 | CN1C(=N)NC(c2csc(-c3cccc(C#N)c3)c2)(C2CC2)C1=O (stereo not drawn)
< 5 | CN1C(=N)N[C@](C)(c2cc(-c3ccc(F)c(C#N)c3)c(F)s2)[C@@H](C2CC2)C1=O
< 5 | CN1C(=N)NC(c2ccccc2)(c2cccc(NC(=O)CC3CC3)c2)C1=O (racemic)
< 5 | CN(C)C(=O)N1CCC([C@H]2C(=O)N(C)C(=N)N[C@]2(C)c2cc(-c3cccc(C#N)c3)cs2)CC1
< 5 | CN1C(=N)NC(c2ccccc2)(c2cccc(NC(=O)c3ccoc3)c2)C1=O (racemic)
< 5 | CN1C(=N)N[C@](C)(c2cnn(-c3cccc(I)c3)c2)CC1=O
< 5 | CN1C(=N)N[C@](C)(C[C@H]2CCC[C@@H](Nc3cnccn3)C2)C1=O
< 5 | Cc1nn(C)c2sc([C@]3(C)CC(=O)N(C)C(=N)N3)cc12
< 5 | COc1ccccc1C(=O)NCc1ccc(Cl)cc1-c1cccc(C2(C)NC(=N)N(C)C2=O)c1 (stereo not drawn) [benzamide, N-[[5-chloro-3′-(2-imino-1,4-dimethyl-5-oxo-4-imidazolidinyl)[1,1′-biphenyl]-2-yl]methyl]-2-methoxy-]
< 5 | COc1cc(-c2cccc([C@@]3(C4CC4)NC(=N)N(C)C3=O)c2)ccc1O
< 5 | CN1C(=N)N[C@](C)(c2cc(-c3cccc(OC(F)(F)F)c3)ccn2)CC1=O
< 5 | CS(=O)(=O)N1CCC(CN2C(=N)NC(c3ccccc3)(c3ccccc3)C2=O)CC1 [piperidine, 4-[(2-imino-5-oxo-4,4-diphenyl-1-imidazolidinyl)methyl]-1-(methylsulfonyl)-]
< 5 | CN1C(=N)N[C@](C)(c2ccnc(-c3cccnc3F)c2)[C@@H](c2ccc(C3CC3)cc2)C1=O

Ki [µM] | SMILES
< 5 | CCCS(=O)(=O)N1CCC[C@H](CN2C(=N)NC(c3ccccc3)(c3ccccc3)C2=O)C1
< 5 | N=C1NC(c2cccc(-c3cccc(Cl)c3)c2)(C2CC2)C(=O)N1C(CO)CO (stereo not drawn) [4-imidazolidinone, 5-(3′-chloro[1,1′-biphenyl]-3-yl)-5-cyclopropyl-3-[2-hydroxy-1-(hydroxymethyl)ethyl]-2-imino-]
< 5 | Cc1ccc(N2CCC([C@H]3C(=O)N(C)C(=N)N[C@]3(C)c3cc(-c4cccc(C#N)c4)cs3)CC2)cc1
< 5 | CN1C(=N)NC(c2cccc(Br)c2)(C2(C)CC2)C1=O (stereo not drawn) [5-(3-BROMOPHENYL)-2-IMINO-3-METHYL-5-(1-METHYLCYCLOPROPYL)-4-IMIDAZOLIDINONE]
< 5 | CN1C(=N)NC(C)(c2cc(-c3cccc(C#N)c3)cs2)C(n2cccn2)C1=O (single isomer, unassigned)
< 5 | CN1C(=N)N[C@](C)(c2cc(-c3ccc(Cl)s3)cs2)CC1=O
< 5 | CN1C(=N)NC(C)(c2cccc(-c3cc(Cl)ccc3CNC(=O)Nc3ccccc3)c2)C1=O (stereo not drawn) [urea, N-[[5-chloro-3′-(2-imino-1,4-dimethyl-5-oxo-4-imidazolidinyl)[1,1′-biphenyl]-2-yl]methyl]-N′-phenyl-]
< 5 | Cc1ccc(CN2C(=N)NC(c3ccccc3)(c3ccccc3)C2=O)cc1
< 5 | CN1C(=N)N[C@](C)(c2cc(-c3cccc(C#N)c3)c(C3=CCN(c4ccccc4)CC3)s2)CC1=O
< 5 | N=C1NC(c2ccccc2)(c2ccccc2)C(=O)N1Cc1ccoc1
< 5 | COCC1CCCN1C(=O)c1cccc(CN2C(=N)NC(C)(c3cccc(-c4cccc(Cl)c4)c3)C2=O)c1 (stereo not drawn)
< 5 | CN1C(=N)N[C@](CCC2CCCCC2)(C[C@H]2CCC[C@@H](NC(=O)c3ccc4ccccc4n3)C2)C1=O
< 5 | CC[C@H]1C(=O)N(C)C(=N)N[C@]1(C)c1cccc(-c2cccc(OC)c2)c1
< 5 | CN1C(=N)N[C@](C)(c2cc(-c3cc(Cl)cc(C#N)c3)cs2)CC1=O
< 5 | Cc1c(-c2cccc(OC(F)(F)F)c2)csc1[C@]1(C)CC(=O)N(C)C(=N)N1
< 5 | CN1C(=N)N[C@](CCc2ccccc2)(C[C@H]2CCC[C@@H](NC(=O)c3cccnc3)C2)C1=O
< 5 | CSc1cccc(-c2csc([C@]3(C)CC(=O)N(C)C(=N)N3)c2)c1
< 5 | CN1C(=N)N[C@](C)(c2cc(Br)c(-c3cncc(C#N)c3)s2)CC1=O
< 5 | CC(C)n1cc([C@H]2C(=O)N(C)C(=N)N[C@]2(C)c2cc(-c3cccc(C#N)c3)cs2)cn1
< 5 | CN1C(=N)N[C@](C)(c2ccc3c(c2)c(-c2cccs2)cn3C)CC1=O
< 5 | CN1C(=N)N[C@](C)(c2cc(-c3cc(C#N)cc(C#N)c3)nn2C)CC1=O
< 5 | C[C@H]1C(=O)N(C)C(=N)N[C@]1(C)c1cc(-c2ccc(F)c(C#N)c2)cs1
< 5 | N=C1NC(c2ccccc2)(c2ccccc2)C(=O)N1C[C@H]1CCCN(C(=O)C2CC2)C1
< 5 | CN1C(=N)N[C@](C)(c2ccc(F)cc2F)[C@@H](c2ccc(N3CCCS3(=O)=O)cc2)C1=O
< 5 | CN1C(=N)N[C@](C)(c2cc(-c3cccc(Cl)c3)ccn2)CC1=O
< 5 | CN1C(=N)NC(C)(c2cc(-c3cccc(C#N)c3)cs2)C(CCCc2ccccc2)C1=O (stereo not drawn)

Ki [µM] | SMILES
< 5 | CN1C(=N)N[C@](C)(c2cc(-c3cccc(C#N)c3)cs2)[C@@H](c2csc3ccccc23)C1=O
< 5 | CN1C(=N)N[C@@](c2cccc(-c3cc(Br)ccn3)c2)(C2CC2)C1=O
< 5 | CN1C(=N)NC(c2ccccc2)(c2cccc(-c3cccc(CO)c3)c2)C1=O (stereo not drawn)
< 5 | C=C1C(=O)N(C)C(=N)N[C@]1(C)c1cccc(-c2cccc(C#N)c2)c1
< 5 | CN1C(=N)NC(c2ccccc2)(c2cc(-c3cncnc3)cs2)C1=O (stereo not drawn)
< 5 | COCC1CCCN1C(=O)c1cncc(CN2C(=N)NC(c3ccccc3)(C3CC3)C2=O)c1 (stereo not drawn)
< 5 | CN1C(=N)N[C@](C)(c2cc(-c3cc(C#N)ccc3Cl)c3sccc3c2)CC1=O
< 5 | CN1C(=N)N[C@](CCC2CCCCC2)(C[C@H]2CCC[C@@H](NCCc3ccccc3)C2)C1=O
< 5 | CN1C(=N)N[C@](C)(c2cc(-c3cc(F)cc(C#N)c3)nn2C)CC1=O
< 5 | Cc1ccc(-c2csc([C@]3(C)CC(=O)N(C)C(=N)N3)c2)cc1C#N
< 5 | CN1C(=N)N[C@](C)(c2csc3c(-c4cccc(C#N)c4)cccc23)CC1=O
< 5 | CN1C(=N)NC(c2ccccc2)(c2cccc(NS(=O)(=O)c3cccs3)c2)C1=O (racemic)
< 5 | CN1C(=N)NC(C)(c2cc(-c3cccc(C#N)c3)cs2)C(CC#N)C1=O (mixture of isomers)
< 5 | CN1OCC(C)(c2cccc(-c3cccc(Cl)c3)c2)NC1=N (stereo not drawn)
< 5 | N=C1NC(c2ccccc2)(c2ccccc2)C(=O)N1CC1CCN(C(=O)Nc2cccc(F)c2)CC1
< 5 | CN1C(=N)NC(c2ccccc2)(c2cccc(-c3nccnc3Cl)c2)C1=O (racemic)
< 5 | CCC1(c2cc(-c3cccnc3)cs2)CC(=O)N(C)C(=N)N1 (stereo not drawn)
< 5 | CN1C(=N)N[C@](C)(c2ccc3scc(CCC4CC4)c3c2)CC1=O
< 5 | CN1C(=N)N[C@](C)(c2cc(-c3cc(C#N)ccc3O)cs2)CC1=O
< 5 | CC1(c2cccc(-c3cccc(Cl)c3)c2)NC(=N)N(CC2CCN(C(=O)c3ccccc3)C2)C1=O (stereo not drawn)
< 5 | CN1C(=N)NC(C)(c2cccc(-c3cncc(F)c3)c2)C1=O (stereo not drawn)
< 5 | COc1ccc2c(c1)CC[C@@]21C(=O)N(C)C(=N)N[C@]1(C)c1cc(-c2cccc(C#N)c2)cs1
< 5 | CN1C(=N)N[C@](C)(c2ccc3c(ccn3C)c2)CC1=O
< 5 | N=C1NC(c2cccc(-c3cccc(Cl)c3)c2)(C2CC2)C(=O)N1C1CCCC1 (stereo not drawn) [4-imidazolidinone, 5-(3′-chloro[1,1′-biphenyl]-3-yl)-3-cyclopentyl-5-cyclopropyl-2-imino-]
< 5 | CN1C(=N)N[C@](C)(c2ccc3scc(-c4ccc(C#N)s4)c3c2)CC1=O
< 5 | COc1ccccc1C(=O)N[C@@H]1CCC[C@H](C[C@@]2(CCC3CCCCC3)NC(=N)N(C)C2=O)C1
